| SMILES | melting point |
| --- | --- |
| CC(=O)Nc1cc2c(cc1[N+](=O)[O-])OC(C)(C)C1OC21 (centres undefined) | 156 to 158 °C |
| COc1ccc(-c2ccc3c(c2)C=C(C(=O)Nc2ccc(CN(C)C4CCOCC4)cc2)CCS3(=O)=O)cc1OC | 195 to 197 °C |
| OCCC(CCO)c1ccncc1 | 66 to 68 °C |
| CCCn1c2c(c3c4c(-c5ccccc5)csc4ccc31)CN(C)CC2 | 156 °C |
| N#Cc1ncccc1Oc1ccccc1 | 79 to 82 °C |
| CCCC(Oc1ccc2c(-c3ccc(Cl)cc3)noc2c1)C(=O)OCC (centres undefined) | 88 °C |
| COC(=O)c1ccc(OCCCCCCc2ccc3cc(OCc4ccccc4)c(OCc4ccccc4)cc3c2)cc1 | 121 to 125 °C |
| Cc1cc(C)c2c(-c3ccc(C(C)C)cc3)coc2c1 | 44 to 45 °C |
| CNC(=O)Cn1c(-c2ccc(C)s2)nc2cccnc21 | 213 to 216 °C |
| COC(=O)c1cc(C(=O)Nc2nccs2)c2cc(Cc3ccc(F)cc3)cnc2c1O | 258 to 259 °C |
| Cn1ccc(S(=O)(=O)NC(C)(C)C)c1C=O | 102 to 103 °C |
| Cc1ncoc1C(C)(O)c1ccccc1 (centres undefined) | 102 to 104 °C |
| ClCc1cnn(-c2ccc(Cl)c(Cl)c2)c1 | 66 to 67 °C |
| O=[N+]([O-])c1cnc2sccc2c1Cl | 110 to 113 °C |
| COC(=O)NC(=S)Nc1ccon1 | 165 to 167 °C |
| Cc1ccc(C(=O)Nc2ccccc2)cc1[N+](=O)[O-] | 147 to 148 °C |
| Clc1ccc2c(c1)C(c1ccccc1)=NCc1nnc(CNC3CC3)n1-2 | 164 to 169 °C |
| O=C(Nc1ccncc1)c1ccc(-c2ccc3nnn(Cc4ccc5ncccc5c4)c3n2)cc1F | 217 to 219 °C |
| CC(=Cc1ccc2ccccc2c1)c1ccc(C(=O)O)cc1 | 238 °C |
| Cc1ccc(-c2cnc(-c3ccc(C(F)(F)F)cc3)s2)s1 | 150 to 152 °C |
| CCCc1ccc(COc2ccc3c(c2)CCC(CN2CC(C(=O)O)C2)=C3C)c(OC)c1 | 158 to 163 °C |
| O=[N+]([O-])c1ccc(NCCCn2ccnc2)c(F)c1 | 144 °C |
| Cc1cccc(C)c1C=Nc1cc(Cl)c(N=CN(C)C)c(Cl)c1 | 123 to 124 °C |
| CCN(CC)CCCCNc1ncc2c(n1)N(C1CCCC1)C(=O)N(c1c(F)c(OC)cc(OC)c1F)C2 | 132 to 133 °C |

| SMILES | melting point |
| --- | --- |
| Nc1cccc(NC(=O)OCc2cc3cc(-c4ccc(F)cc4)ccc3o2)c1C(=O)O | 176 to 178 °C |
| Oc1cc2c(cc1O)CN(c1ncnc3c(N4CCOCC4)nc(Cl)nc13)CC2 | 187 to 189 °C |
| O=CC(Nc1ccc2c(c1)OCC(=O)N2)N1CCC(Cc2ccccc2)CC1 (centres undefined) | 172 to 175 °C |
| N#Cc1ccc(-c2nc(CO)no2)cc1 | 138 to 140 °C |
| CC(C)(C)c1ccc2c(C=O)c3ccccc3c(Cl)c2c1 | 143 to 147 °C |
| CCCCCCCCC1OC(=O)c2cc(NC(C)=O)ccc21 (centres undefined) | 133 to 134 °C |
| Cc1ccccc1-c1cccc(C(=O)O)c1 | 127 °C |
| C=C(C)C(=O)Nc1ccc(C(=O)O)c(O)c1 | 220 to 222 °C |
| COc1ccc(-c2sc3cc(OC)ccc3c2C(=O)c2ccccc2)cc1 | 100 to 102 °C |
| CCCCCCCCCCCCCCCCCCNC(=O)OCC(CNS(=O)(=O)CCCI)NC(=O)NC (centres undefined) | 87 to 89 °C |
| C=CCN(CC=C)c1nc(NC(=O)C=C(C)C)n2oc(=O)nc2n1 | 165 to 166 °C |
| CC1(C)Cc2ccsc2C=[N+]1[O-] | 136 to 138 °C |
| CCOC(=O)c1nc(C)n2c1CN=C(c1ccccc1F)c1cc(C#N)ccc1-2 | 272 to 274 °C |
| Cc1ccc2c(c1Cl)C(=O)N(C(C)(C(N)=O)C(C)C)C2=O (centres undefined) | 215 to 218 °C |
| CC(=O)OCC(O)COc1ccc2nc(S(N)(=O)=O)sc2c1 (centres undefined) | 173 to 175 °C |
| NC1=NN(c2nc3ccccc3s2)CC1 | 232 to 235 °C |
| CC1=CC(c2cccc(C(F)(F)F)c2)C2=C(CCCC2=O)N1 (centres undefined) | 184 to 185 °C |
| Oc1cccc(NCCc2ccccn2)c1 | 118 to 120 °C |
| CCCc1cc(Cl)c2oc(-c3ccccc3)c(C)c2c1OC(C)=O | 86 to 87 °C |
| CC(C)(C)[C@H]1CC[C@H](CC2=C(Cl)C(=O)c3ccccc3C2=O)CC1 | 154 to 156 °C |
| CCn1c(=O)c(CC(=O)OC)cc2ccc(O)cc21 | 176 to 178 °C |
| COc1ccccc1COc1ccc(S(=O)(=O)c2ccc(C)nc2Nc2cc(OC)c(OC)cc2C)cc1 | 62 to 66 °C |
| OCCOc1cncc(Cl)c1 | 38 to 40 °C |
| CC(C)(C)CC(C)(C)c1cc(-n2nc3ccc([N+](=O)[O-])cc3n2)c(O)c(C(C)(C)c2ccccc2)c1 | 153 to 156 °C |

| SMILES | melting point |
| --- | --- |
| O=C(O)c1cc(-c2ccccc2)cc2c(-c3ccccc3)c([N+](=O)[O-])oc12 | 207 to 209 °C |
| C[Si](C)(C)C#Cc1cc2cccnc2c(-c2cccc([N+](=O)[O-])c2)n1 | 160 to 163 °C |
| CCCCCc1ccc(CCc2ccc(-c3ccc(OC(F)(F)F)cc3)cc2)cc1 | 60 °C |
| C=C1CCC23OC2(C1)CC(C)C1C2CCC(O)C2(C)CCC13 (centres undefined) | 125 °C |
| COc1cc(O)ccc1/C=C/c1ccc(O)cc1 | 192 to 194 °C |
| Cc1cc(O)c(N)c([N+](=O)[O-])c1 | 197 to 199 °C |
| CC(C)(C)NCC(O)c1ccc(N)c(C#N)c1 (centres undefined) | 181 to 185 °C |
| Cc1c2c(cn1C)CN=C(c1ccccc1Cl)c1cc(Cl)ccc1-2 | 200 to 202 °C |
| CCc1c2c(nc3cc(F)cc(F)c13)-c1cc3c(c(=O)n1C2)COC(=O)CC3(O)CC (centres undefined) | 255 °C |
| NS(=O)(=O)c1ccc(-n2nc(CC(=O)O)cc2-c2ccc(Cl)cc2)cc1 | 120 to 122 °C |
| CC1(C)OCC(COc2cc(N)c([N+](=O)[O-])cc2I)O1 (racemic) | 151 °C |
| CC1=NC(NC(=O)Nc2cccc(C)c2)C(=O)N(CC(=O)N2CCC(C(N)=O)CC2)c2c(C)cccc21 (centres undefined) | 197 to 198 °C |
| N#CCOc1cccc(CN2C(=O)c3cccc(NC(=O)c4ccc(Cl)s4)c3C2=O)c1 | 164 °C |
| Cc1ncc(CNC(=O)c2ccc3n2Cc2ccccc2N(C(=O)CSc2ccc(Br)cc2)C3)c(CO)c1O | 199 to 200 °C |
| CCCCOc1ccc2cc(Br)ccc2c1 | 48 to 50 °C |
| CC(C)Cc1nn(C)c(=O)c2cc(Cc3cccc4ccccc34)oc12 | 73 to 75 °C |
| COc1ccc(Cl)c(Oc2c(CO)nc(N3CCOCC3)nc2NS(=O)(=O)c2ccc(C(C)C)cn2)c1 | 105 °C |
| COc1cc(/C=C/c2ccc(F)cc2)cc(OC)c1 | 46 to 48 °C |
| Cc1ccc(N(C)c2ccco2)cc1O | 127 to 128 °C |
| COc1cc(C)c2c(c1)OC(C)(C)CC2=O | 86 to 88 °C |
| CC(C)(C)OC(=O)N1CCN2C(=O)N(c3ccc(C#N)c4ccccc34)C(=O)C2C1 (centres undefined) | 222 to 224 °C |
| O=C1NCc2c(Oc3ccccc3)cccc2N1Cc1ccccc1 | 171 to 173 °C |

Now from value to compound:

| melting point | SMILES |
| --- | --- |
| 175 to 176 °C | Cc1c(C(F)(F)F)nc[nH]c1=O |
| 139 to 140 °C | O=C(NCCOc1ccc(CC(Oc2ccc(F)cc2)C(=O)O)cc1)c1ccc(-c2ccccn2)cc1 (centres undefined) |
| 198 to 199 °C | CC(O)COc1ccc2c(c1)c(-c1cc3cccnc3[nH]1)cn2C (centres undefined) |
| 234 to 236 °C | CC(C)c1n[nH]c2c(NCc3ccc(O)cc3)ncnc12 |
| 175 to 178 °C | O=C(CCl)Nc1ccc2[nH]ncc2c1 |
| 225 to 228 °C | O=S(=O)(Nc1ccc(Cl)cc1-c1nc2ccccc2[nH]1)c1ccc(Cl)cc1 |
| 174 to 175 °C | O=[N+]([O-])c1ccc(SCc2cnc3ccccn23)cc1 |
| 152 °C | CCOc1nc(=O)n(C(=O)NC)s1 |
| 154 to 155 °C | CC(C(=O)O)c1ccc(-n2cc(Br)cn2)cc1 (centres undefined) |
| 215 to 218 °C | COC(=O)c1c(N)c2c(c(N)c1C#N)C(=O)c1ccccc1C2=O |
| 50 to 51 °C | CCCOc1ccc(CO)nc1OCc1ccccc1 |
| 185 to 187 °C | COC(=O)c1ccc(CNS(C)(=O)=O)cc1S(N)(=O)=O |
| 131 to 133 °C | CCCc1cc(OCC)c2c(c1OC)S(=O)(=O)N(CCl)C2=O |
| 144 to 146 °C | O=C(O)Cc1ccc(-c2ccc(F)cc2)c(F)c1 |
| 263 to 270 °C | O=S(=O)(Cl)c1cc(S(=O)(=O)Cl)c2cc(S(=O)(=O)Cl)cc(S(=O)(=O)Cl)c2c1 |
| 145 to 148 °C | CC1CCCN1c1ccccc1NC(N)=S (centres undefined) |
| 171 to 174 °C | CC(O)C(C)Sc1sc(-c2cc[nH]n2)c2c1C(=O)CC(C)(C)C2 (centres undefined) |

| melting point | SMILES |
| --- | --- |
| 59 to 60 °C | C=C(C)C(=O)Oc1ccc(S(=O)(=O)NCCCC)cc1 |
| 120 to 122 °C | COc1ccc(-c2c(NC(=O)Nc3ccc(F)cc3F)cnc3ccc(Cl)cc23)c(OC)c1OC |
| 113 to 114 °C | OCc1sc(Cl)nc1-c1ccc(Cl)cc1 |
| 265 to 266 °C | Cc1c(Cl)cccc1S(=O)(=O)Nc1ccc2nc(C)n(C)c2c1 |
| 211 to 214 °C | CCOC(=O)CSc1nc(O)c(C)c(O)n1 |
| 188 °C | O=C1NCCc2c(-c3cccc(CCO)c3)[nH]c3cccc1c23 |
| 48 to 49 °C | CCCCC(CC)Nc1cc(C)nc(Cl)c1[N+](=O)[O-] (centres undefined) |
| 202 to 206 °C | CN1CCN(C2=Nc3ccccc3Nc3ccsc32)CC1 |
| 196 to 197 °C | S=C1Nc2cc(Br)ccc2N2CCc3cccc1c32 |
| 127 °C | COc1cc(OC)nc(Oc2cccc(Oc3nc(OC)cc(OC)n3)c2CBr)n1 |
| 99 to 102 °C | CCCCNc1c(C#N)cnc2cc(OCCOC)c(OC)cc12 |
| 85 to 90 °C | COCCNc1c([N+](=O)[O-])cnn1-c1c(Cl)cc(C(F)(F)F)cc1Cl |
| 173 to 175 °C | Cn1nc(-c2ccc3ccccc3c2)n(C)c1=S |
| 125 to 127 °C | Cc1oc(-c2ccc(Cl)cc2)nc1COc1cccc(CN(O)C(N)=O)c1 |
| 40 to 47 °C | CCCCCCCCC1SC(=S)SC1CCCCCCCCO (centres undefined) |
| 200 to 210 °C | COCCOc1cc2ncnc(NC3=CC(=O)C(Br)=CC3=O)c2cc1OC |
| 184 °C | CC(=O)c1ccc(-c2ccc(CC(=O)NC3CCN(Cc4ccc(Cl)c(Cl)c4)CC3)cc2)cc1 |
